Results taken from patent US9453062B2, “Glucose dependent insulinotropic polypeptide analogs, pharmaceutical compositions and use thereof” (Beijing Hanmi Pharmaceutical Co., Ltd., priority 2011, dated 2016).
Like-named read-outs stand apart in the source and are kept apart here. *1 amine or outer side, *2 acyl side, *3 side chain or, on linkers, in order; H or OH if unused. Where a SMILES comes first, the peptide text is derived from it. Where no end group is shown, it is not given here. Side-chain parts run from the residue outwards. [ ]: non-standard residue; d: D form. The star is where a group is joined. γGlu = O=C(O)[C@H](CCC(=O)[*:2])N[*:1]; Palmitoyl = CCCCCCCCCCCCCCCC(=O)*; Nle = CCCC[C@H](N)C(=O)O; Aib = CC(C)(N)C(=O)O

What was measured:
hGLP-1R = target: T1, hGLP-1R (Homo sapiens, UniProt P43220); assay: hGLP-1R-mediated cAMP induction assay in CHO cell line; assay type: cell-based;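 also: CHO cells expressing human GLP-1R, treated 30 min at 37 °C, intracellular cAMP measured by competitive fluorescent immunoassay and converted via a cAMP standard curve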
T1 construct: expressed in transfected cells; host or cells: CHO

hGIPR = target: T2, hGIPR (Homo sapiens, UniProt P48546); assay: hGIPR-mediated cAMP induction assay in CHO cell line; assay type: cell-based
T2 construct: expressed in transfected cells; host or cells: CHO
T2 sequence (P48546 22-466): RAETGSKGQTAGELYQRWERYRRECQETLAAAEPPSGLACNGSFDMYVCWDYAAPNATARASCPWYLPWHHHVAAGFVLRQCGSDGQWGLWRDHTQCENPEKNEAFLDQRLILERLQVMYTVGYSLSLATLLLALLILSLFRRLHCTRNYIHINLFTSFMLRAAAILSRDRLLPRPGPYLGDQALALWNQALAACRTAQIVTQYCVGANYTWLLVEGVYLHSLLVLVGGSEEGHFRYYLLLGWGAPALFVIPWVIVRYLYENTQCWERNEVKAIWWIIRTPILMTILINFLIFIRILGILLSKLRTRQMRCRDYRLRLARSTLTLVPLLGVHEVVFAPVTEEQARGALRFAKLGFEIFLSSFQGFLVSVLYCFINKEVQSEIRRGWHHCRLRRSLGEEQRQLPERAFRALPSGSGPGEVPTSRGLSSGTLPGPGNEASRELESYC

T1 sequence (P43220 24-463): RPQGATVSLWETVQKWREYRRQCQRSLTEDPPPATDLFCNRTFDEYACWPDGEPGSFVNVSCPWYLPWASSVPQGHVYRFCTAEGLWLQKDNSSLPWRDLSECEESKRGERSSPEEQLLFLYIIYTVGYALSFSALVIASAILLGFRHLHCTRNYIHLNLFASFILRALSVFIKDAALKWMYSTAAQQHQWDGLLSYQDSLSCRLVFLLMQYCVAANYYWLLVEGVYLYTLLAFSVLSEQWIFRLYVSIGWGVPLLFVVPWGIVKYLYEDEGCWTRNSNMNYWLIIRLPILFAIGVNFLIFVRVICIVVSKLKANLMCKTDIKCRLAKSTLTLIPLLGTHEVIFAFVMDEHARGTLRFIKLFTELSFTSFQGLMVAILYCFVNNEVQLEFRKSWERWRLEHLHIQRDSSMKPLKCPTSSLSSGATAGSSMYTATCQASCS

Row | Compound | GLP-1 Receptor Relative Potency (hGLP-1R; Table 3, against native GLP-1) | GIP Receptor Relative Potency (hGIPR; Table 3, against native GIP) | EC50 (hGLP-1R; Table 3, CHO hGLP1R cells) [nM] | EC50 (hGIPR; Table 3, CHO hGIPR cells) [nM] | EC50 (hGLP-1R; Table 1, CHO/hGLP-1R cells, read-out: GLP-1R EC50) [nM] | GLP-1R Relative Potency (hGLP-1R; Table 1, against native GLP-1) [%] | EC50 (hGIPR; Table 1, CHO/hGIPR cells, read-out: GIPR EC50) [nM] | GIPR Relative Potency (hGIPR; Table 1, against native GIP) [%] | EC50 (hGLP-1R) [nM]
1 | CCCCCCCCCCCCCCCC(=O)NCCCC[C@H](NC(=O)[C@@H](NC(=O)[C@H](C)NC(=O)[C@H](CCC(=O)O)NC(=O)[C@H](CCCCN)NC(=O)[C@H](CCC(=O)O)NC(=O)[C@H](CCSC)NC(=O)[C@H](Cc1ccc(O)cc1)NC(=O)[C@@H](NC(=O)[C@H](CO)NC(=O)[C@H](Cc1ccc(O)cc1)NC(=O)[C@H](CC(=O)O)NC(=O)[C@H](CO)NC(=O)[C@@H](NC(=O)[C@H](Cc1ccccc1)NC(=O)[C@@H](NC(=O)CNC(=O)[C@H](CCC(=O)O)NC(=O)C(C)(C)NC(=O)[C@@H](N)Cc1ccc(O)cc1)[C@@H](C)O)[C@@H](C)O)[C@@H](C)CC)C(C)C)C(=O)N[C@@H](CCC(=O)O)C(=O)N[C@@H](Cc1ccccc1)C(=O)N[C@H](C(=O)N[C@@H](C)C(=O)N[C@@H](Cc1c[nH]c2ccccc12)C(=O)N[C@@H](CC(C)C)C(=O)N[C@H](C(=O)N[C@@H](CCCCN)C(=O)NCC(N)=O)C(C)C)[C@@H](C)CC [Compound 067] (H-Y[Aib]EGTFTSDYSIYMEKEAVK(Palmitoyl)EFIAWLVKG-NH2) | 13.9 | 4.6 |  |  |  |  |  |  | 
2 | CCCCCCCCCCCCCCCC(=O)N[C@@H](CCC(=O)NCCCC[C@H](NC(=O)[C@@H](NC(=O)[C@H](CC(C)C)NC(=O)[C@H](Cc1c[nH]c2ccccc12)NC(=O)[C@H](C)NC(=O)[C@@H](NC(=O)[C@H](Cc1ccccc1)NC(=O)[C@H](CCC(=O)O)NC(=O)[C@H](CCCNC(=N)N)NC(=O)[C@@H](NC(=O)[C@H](C)NC(=O)[C@H](CCC(=O)O)NC(=O)[C@H](CCCCN)NC(=O)[C@H](CCC(=O)O)NC(=O)[C@H](CCSC)NC(=O)[C@H](Cc1ccc(O)cc1)NC(=O)[C@@H](NC(=O)[C@H](CO)NC(=O)[C@H](Cc1ccc(O)cc1)NC(=O)[C@H](CC(=O)O)NC(=O)[C@H](CO)NC(=O)[C@@H](NC(=O)[C@H](Cc1ccccc1)NC(=O)[C@@H](NC(=O)CNC(=O)[C@H](CCC(=O)O)NC(=O)C(C)(C)NC(=O)[C@@H](N)Cc1ccc(O)cc1)[C@@H](C)O)[C@@H](C)O)[C@@H](C)CC)C(C)C)[C@@H](C)CC)C(C)C)C(=O)NCC(=O)NCC(=O)N1CCC[C@H]1C(=O)N[C@@H](CO)C(=O)N[C@@H](CO)C(=O)NCC(=O)N[C@@H](C)C(=O)N1CCC[C@H]1C(=O)N1CCC[C@H]1C(=O)N1CCC[C@H]1C(=O)N[C@@H](CO)C(N)=O)C(=O)O [Compound 094] | 149.2 | 4.7 | 0.67 | 0.85 |  |  |  |  | 
3 | CC[C@H](C)[C@H](NC(=O)[C@H](Cc1ccccc1)NC(=O)[C@H](CCC(=O)O)NC(=O)[C@H](CCCNC(=N)N)NC(=O)[C@@H](NC(=O)[C@H](C)NC(=O)[C@H](CCC(=O)O)NC(=O)[C@H](CCCCN)NC(=O)[C@H](CCC(=O)O)NC(=O)[C@H](CCSC)NC(=O)[C@H](Cc1ccc(O)cc1)NC(=O)[C@@H](NC(=O)[C@H](CO)NC(=O)[C@H](Cc1ccc(O)cc1)NC(=O)[C@H](CC(=O)O)NC(=O)[C@H](CO)NC(=O)[C@@H](NC(=O)[C@H](Cc1ccccc1)NC(=O)[C@@H](NC(=O)CNC(=O)[C@H](CCC(=O)O)NC(=O)C(C)(C)NC(=O)[C@@H](N)Cc1ccc(O)cc1)[C@@H](C)O)[C@@H](C)O)[C@@H](C)CC)C(C)C)C(=O)N[C@@H](C)C(=O)N[C@@H](Cc1c[nH]c2ccccc12)C(=O)N[C@@H](CC(C)C)C(=O)N[C@H](C(=O)N[C@@H](CCCCN)C(=O)NCC(=O)NCC(=O)N1CCC[C@H]1C(=O)N[C@@H](CO)C(=O)N[C@@H](CO)C(=O)NCC(=O)N[C@@H](C)C(=O)N1CCC[C@H]1C(=O)N1CCC[C@H]1C(=O)N1CCC[C@H]1C(=O)N[C@@H](CO)C(=O)N[C@@H](CCCCN)C(N)=O)C(C)C [Compound 066] | 43.7 | 50 | 2.5 |  |  |  |  |  | 
4 | CC[C@H](C)[C@H](NC(=O)[C@H](Cc1ccccc1)NC(=O)[C@H](CC(C)C)NC(=O)[C@H](CCCCN)NC(=O)[C@H](C)NC(=O)[C@H](C)NC(=O)[C@H](CCC(N)=O)NC(=O)[C@H](CCCCN)NC(=O)[C@H](CCC(=O)O)NC(=O)[C@H](CCSC)NC(=O)[C@H](Cc1ccc(O)cc1)NC(=O)[C@@H](NC(=O)[C@H](CO)NC(=O)[C@H](Cc1ccc(O)cc1)NC(=O)[C@H](CC(=O)O)NC(=O)[C@H](CO)NC(=O)[C@@H](NC(=O)[C@H](Cc1ccccc1)NC(=O)[C@@H](NC(=O)CNC(=O)[C@H](CCC(=O)O)NC(=O)C(C)(C)NC(=O)[C@@H](N)Cc1ccc(O)cc1)[C@@H](C)O)[C@@H](C)O)[C@@H](C)CC)C(=O)N[C@@H](CCC(=O)O)C(=O)N[C@@H](Cc1c[nH]c2ccccc12)C(=O)N[C@@H](CC(C)C)C(=O)N[C@@H](CCCCN)C(=O)N[C@@H](CC(N)=O)C(=O)NCC(N)=O [Compounds 026] (H-Y[Aib]EGTFTSDYSIYMEKQAAKLFIEWLKNG-NH2) | 288 | 11.9 |  |  | 0.38 | 288 | 4.2 | 11.9 | 
5 | CC[C@H](C)[C@H](NC(=O)[C@H](Cc1ccccc1)NC(=O)[C@H](CCC(=O)O)NC(=O)[C@H](CCCNC(=N)N)NC(=O)[C@@H](NC(=O)[C@H](C)NC(=O)[C@H](CCC(=O)O)NC(=O)[C@H](CCCCN)NC(=O)[C@H](CCC(=O)O)NC(=O)[C@H](CCSC)NC(=O)[C@H](Cc1ccc(O)cc1)NC(=O)[C@@H](NC(=O)[C@H](CO)NC(=O)[C@H](Cc1ccc(O)cc1)NC(=O)[C@H](CC(=O)O)NC(=O)[C@H](CO)NC(=O)[C@@H](NC(=O)[C@H](Cc1ccccc1)NC(=O)[C@@H](NC(=O)CNC(=O)[C@H](CCC(=O)O)NC(=O)C(C)(C)NC(=O)[C@@H](N)Cc1ccc(O)cc1)[C@@H](C)O)[C@@H](C)O)[C@@H](C)CC)C(C)C)C(=O)N[C@@H](C)C(=O)N[C@@H](Cc1c[nH]c2ccccc12)C(=O)N[C@@H](CC(C)C)C(=O)N[C@H](C(=O)N[C@@H](CCCCN)C(=O)NCC(=O)N[C@@H](CCCCN)C(=O)N[C@@H](CCCCN)C(=O)N[C@@H](CCCCN)C(=O)N[C@@H](CCCCN)C(=O)N[C@@H](CCCCN)C(N)=O)C(C)C [Compound 060] (H-Y[Aib]EGTFTSDYSIYMEKEAVREFIAWLVKGKKKKK-NH2; N-terminus assumed) | 36.8 | 8.4 |  |  |  |  |  |  | 
6 | Y[Aib]EGTFTSDYSIYMEKEAVREFIAWLVKGGPSSGAPPPSKKKKKK(Palmitoyl)-NH2 [Compound 078] | 754 | 352.6 | 0.145 | 0.019 |  |  |  |  | 
7 | CCCCCCCCCCCCCCCC(=O)N[C@@H](CCC(=O)N[C@@H](CCC(=O)NCCCC[C@H](NC(=O)[C@@H](NC(=O)[C@H](C)NC(=O)[C@H](CCC(=O)O)NC(=O)[C@H](CCCCN)NC(=O)[C@H](CCC(=O)O)NC(=O)[C@H](CCSC)NC(=O)[C@H](Cc1ccc(O)cc1)NC(=O)[C@@H](NC(=O)[C@H](CO)NC(=O)[C@H](Cc1ccc(O)cc1)NC(=O)[C@H](CC(=O)O)NC(=O)[C@H](CO)NC(=O)[C@@H](NC(=O)[C@H](Cc1ccccc1)NC(=O)[C@@H](NC(=O)CNC(=O)[C@H](CCC(=O)O)NC(=O)C(C)(C)NC(=O)[C@@H](N)Cc1ccc(O)cc1)[C@@H](C)O)[C@@H](C)O)[C@@H](C)CC)C(C)C)C(=O)N[C@@H](CCC(=O)O)C(=O)N[C@@H](Cc1ccccc1)C(=O)N[C@H](C(=O)N[C@@H](C)C(=O)N[C@@H](Cc1c[nH]c2ccccc12)C(=O)N[C@@H](CC(C)C)C(=O)N[C@H](C(=O)N[C@@H](CCCCN)C(=O)NCC(=O)NCC(=O)N1CCC[C@H]1C(=O)N[C@@H](CO)C(=O)N[C@@H](CO)C(=O)NCC(=O)N[C@@H](C)C(=O)N1CCC[C@H]1C(=O)N1CCC[C@H]1C(=O)N1CCC[C@H]1C(=O)N[C@@H](CO)C(N)=O)C(C)C)[C@@H](C)CC)C(=O)O)C(=O)O [Compound 093] (H-Y[Aib]EGTFTSDYSIYMEKEAVK([γGlu-γGlu-Palmitoyl])EFIAWLVKGGPSSGAPPPS-NH2) | 232.5 | 133.3 | 0.43 | 0.03 |  |  |  |  | 
8 | CCCC[C@H](NC(=O)[C@H](C)NC(=O)[C@@H](NC(=O)[C@H](CO)NC(=O)[C@H](Cc1ccc(O)cc1)NC(=O)[C@H](CC(=O)O)NC(=O)[C@H](CO)NC(=O)[C@@H](NC(=O)[C@H](Cc1ccccc1)NC(=O)[C@@H](NC(=O)CNC(=O)[C@H](CCC(=O)O)NC(=O)C(C)(C)NC(=O)[C@@H](N)Cc1ccc(O)cc1)[C@@H](C)O)[C@@H](C)CC)[C@@H](C)CC)C(=O)N[C@@H](CCC(=O)O)C(=O)N[C@@H](CCCCN)C(=O)N[C@H](C(=O)N[C@@H](Cc1c[nH]cn1)C(=O)N[C@@H](CCC(N)=O)C(=O)N[C@@H](CCC(N)=O)C(=O)N[C@@H](CC(=O)O)C(=O)N[C@@H](Cc1ccccc1)C(=O)N[C@H](C(=O)N[C@@H](CC(N)=O)C(=O)N[C@@H](Cc1c[nH]c2ccccc12)C(=O)N[C@@H](CC(C)C)C(=O)N[C@@H](CC(C)C)C(=O)N[C@@H](C)C(=O)N[C@@H](CCC(N)=O)C(N)=O)C(C)C)[C@@H](C)CC [Compound 010] (H-Y[Aib]EGTFISDYSIA[Nle]EKIHQQDFVNWLLAQ-NH2; N-terminus assumed) |  |  |  |  |  |  |  |  | > 2000
